# Reference: patent US20230066156A1, “6-SUBSTITUTED, 22-CYANO HYODEOXYCHOLANIC ANALOGUES AND USES THEREOF” (PRECISION BIO-THERAPEUTICS S.R.L., priority 2019, published 2023)
# System: THP1 cells
# Assay: Relative mRNA expression of pro- and anti-inflammatory genes by Real-Time PCR in LPS-activated THP1 cells
# Assay type: cell-based, human
# Settings: 10 μM, normalized to GAPDH, FIG. 1
# Protocol: THP-1, a human monocytic cell line derived from an acute monocytic leukemia patient, were cultured and maintained at 37° C. and 5% CO2 in RPMI with 10% FBS, 1% glutamine and 1% penicillin/streptomycin. THP1 cells (1.5×10^6) were serum starved for 6 h and then classically activated with LPS (1 ng/ml, L2880; Sigma-Aldrich), and exposed or not to GPBAR1 agonists previously tested in transactivation assay.
# Furthermore, selected compounds exert in vitro activity on GPBAR1-target genes reducing the production of pro-inflammatory cytokines (IL-6, TNF-α, IL-1β, […]) in THP1 monocytic/macrophage cells primed with LPS and co-incubated with or without the selected compounds at 10 μM (FIG. 1).
# Values are normalized relative to GAPDH mRNA and are expressed as mean±SEM (n=3); #p<0.05.
# Colon samples were immediately frozen in liquid nitrogen and stored at −80° C. until used, mechanically homogenated with the aid of a pestle, and the obtained materials re-suspended in 1 ml of Trizol (Thermo Scientific™). THP1 cells were spin-dried at 1300 rpm and then the pellets were re-suspended in 1 ml of Trizol (Thermo Scientific™). The RNA was extracted according to the manufacturer's protocol. After purification from genomic DNA by DNase-I treatment (Thermo Scientific™), 1 μg of RNA from each sample was reverse-transcribed using random hexamer primers with Superscript-II (Thermo Scientific™) in a 20 μL reaction volume; 10 ng cDNA were amplified in a 20 μL solution containing 200 nM of each primer and 10 μL of SYBR Select Master Mix (Thermo Scientific™). All reactions were performed in triplicate, and the thermal cycling conditions were as follows: 3 min at 95° C., followed by 40 cycles of 95° C. for 15 s, 56° C. for 20 s and 72° C. for 30 s, using a Step One Plus machine (Applied Biosystem). The relative mRNA expression was calculated accordingly to the 2^(−ΔCt) method comparing the expression of different genes to that of GAPDH housekeeping. Primers were designed using the software PRIMER3 (http://frodo.wi.mit.edu/primer3/) using published data obtained from the NCBI database. The primer used for murine samples were conducted as follows (forward and reverse): Gapdh (for […] (SEQ ID: 1); rev […] (SEQ ID: 2)), Tnf-α (for […] (SEQ ID: 3); rev […] (SEQ ID: 4)), Il-6 (for […] (SEQ ID: 5); rev […] (SEQ ID: 6)), Il-1β (for […] (SEQ ID: 7); rev […] (SEQ ID: 8)), Il-10 (for […] (SEQ ID: 9); rev […] (SEQ ID: 10)), Gpbar1 (for […] (SEQ ID: 11); rev […] (SEQ ID: 12)). […]
structure (smiles),measurement,value
"CC[C@]1(O)C[C@H]2[C@@H]3CC[C@H]([C@H](C)CC#N)[C@@]3(C)CC[C@@H]2[C@@]2(C)CC[C@@H](O)C[C@@H]12 [PBT110B, 3α,6α-dihydroxy-6β-ethyl-24-nor-5β-cholan-23-nitrile]",IL1-β production (relative mRNA expression),significantly reduced
same,IL-6 production (relative mRNA expression),significantly reduced
same,TNF-α production (relative mRNA expression),significantly reduced
same,expression of anti-inflammatory gene IL-10,increased
